Data on one molecule can be found in patent publication US11851391B2, “Antifungal compounds and methods of forming the same” (University of Kentucky Research Foundation, priority 2018, dated 2023).

For data set [1], the system named is Candida parapsilosis ATCC 22019 (strain J). Description: MIC determination, in vitro antifungal assay (CLSI M27-A3). Type of data set: cell-based. Conditions: Lodderomyces parapsilosis, ATCC22019, strain J; MIC-2 (50% growth inhibition), reported for VOR; read-out: MIC. The gist of the method: (§1)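 RPMI 1640/0.165 M MOPS, pH 7.0, 35° C; inoculum 2-4×10^3 CFU/mL from overnight YPD culture adjusted to OD600 0.12 first. CLSI M27-A3, modified. DMSO <1.25%. Endpoint: MIC-0, complete growth inhibition.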

Data set [2] concerns Candida albicans ATCC 10231(R) (strain A). The data set is described as above. Conditions: Candida albicans, ATCC10231, 48 h, MIC-0 (no visible growth), 48 h at 35° C., read-out: MIC. The data set is classed as cell-based. The gist of the method:
as §1

Data set [3] deals with Aspergillus terreus ATCC MYA-3633 (strain M). Kind of data set: MIC determination against filamentous fungi (CLSI M38-A2). The data set is classed as cell-based. As to conditions: Aspergillus terreus, 48 h, MIC-0, 48 h at 35° C., read-out: MIC. A digest of the protocol:
(§2)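 MIC-0, meaning no visible growth relative to growth control, was scored after 48 h at 35° C, in triplicate. Hemocytometer-counted spores from potato dextrose agar were inoculated at 5×10^5 CFU/mL final. The medium was MOPS-buffered (0.165 M) RPMI 1640 at pH 7.0, following CLSI M38-A2.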

Data set [4] concerns Aspergillus nidulans ATCC 38163 (strain L). Described as above. The data set is classed as cell-based. As to conditions: Aspergillus nidulans, ATCC38163, 48 h, MIC-0, 48 h at 35° C., read-out: MIC. A digest of the protocol:
as §2

The test system of data set [5] is Aspergillus flavus ATCC MYA-3631 (strain K). The data set is described as above. Type of data set: cell-based. Conditions: Aspergillus flavus, 48 h, MIC-0, 48 h at 35° C., read-out: MIC. A digest of the protocol: as §2
Data set [6] has as its system murine red blood cells (mRBCs). As to conditions: mouse, 60 min. The procedure: Thus, the hemolytic activity for these bishydrazones was investigated against murine red blood cells (mRBCs).
Murine red blood cells (mRBCs) were prepared by suspending 1 mL of murine blood in 3 mL of PBS prior to centrifugation at 1,000 rpm for 5 min. The mRBCs were washed four times in PBS and resuspended in the same buffer to a final concentration of 10^7 mRBC/mL. […] The tubes were incubated at 37° C. for 60 min. […] Eppendorf tubes containing 200 μL of ddH2O and 2 μL of 1% v/v Triton™ X-100 served as negative (blank) and positive controls, respectively. The percentage of hemolysis was calculated using the following equation: % hemolysis=[(absorbance of sample)−(absorbance of blank)]×100/(absorbance of positive control).

The test system of data set [7] is C. albicans ATCC 90819(R) (strain D). Description: MIC determination, in vitro antifungal assay (CLSI M27-A3). As to conditions: Candida albicans, ATCC90819, strain D; MIC-2 (50% growth inhibition), reported for VOR. The data set is classed as cell-based.
Data set [8] deals with C. albicans ATCC MYA-1237(R) (strain F). The description is as above. The data set is classed as cell-based, Candida albicans. Conditions: Candida albicans, MIC-2 (50% growth inhibition), reported for VOR, read-out: MIC. A digest of the protocol:
as §1

Data set [9] relates to C. albicans ATCC 64124(R) (strain B). The data set is described as above. The data set is classed as cell-based, Candida albicans. Conditions: Candida albicans, ATCC64124, strain B; MIC-2 (50% growth inhibition), reported for VOR; read-out: MIC. A digest of the protocol: as §1
In data set [10] the test system is C. albicans ATCC MYA-2310(S) (strain E). Described as above. The data set is classed as cell-based, Candida albicans. Conditions: Candida albicans, MIC-2 (50% growth inhibition), reported for VOR, read-out: MIC. A digest of the protocol:
as §1

In brackets after ≈: the same amount, converted by molar mass. Read-outs that look alike come from different tables or passages of the source.

For `C[C@@H](c1ncncc1F)[C@](O)(Cn1cncn1)c1ccc(F)cc1F` [VOR, voriconazole, reference compound], the minimal inhibitory concentration (MIC) was 1.95 µg/mL (≈ 5.58 µM) in data set [1]; 0.975 µg/mL (≈ 2.79 µM) in [2]; greater than 31.3 µg/mL in data set [3]; greater than 31.3 µg/mL in data set [4]; greater than 31.3 µg/mL in data set [5]; 0.12 µg/mL (≈ 0.344 µM) in [7]. Besides, the figures for the MIC in data set [8], in data set [9] and in [10] were 0.24 µg/mL (≈ 0.687 µM), 0.24 µg/mL (≈ 0.687 µM) and 0.12 µg/mL (≈ 0.344 µM), respectively. Moreover, the “Percentage of hemolysis (±SDEV)” value is reported as 10.3 ± 2.1% in data set [6] (0.975 μg/mL); 6.3 ± 1.9% in data set [6] (1.95 μg/mL); 7.5 ± 0.5% in [6] (3.9 μg/mL); 11.4 ± 10.9% in data set [6] (7.8 μg/mL); 2.8 ± 1.3% in data set [6] (15.6 μg/mL).
